Results on 6 molecules are retold here after PubChem BioAssay AID1918957 (Molecular Pharmacology Branch, DTP, NCI, 2023).

In this assay the test system is NCI-H1876 complex spheroid viability. The assay is described as follows: Anticancer human tumor NCI-H1876 cell line growth inhibition [LSD1].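 On all read-outs here: spheroids exposed to compounds for one week before readout.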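 On viability, T/C: 100% = DMSO vehicle-treated spheroids so lower means fewer viable cells.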 Conditions: for viability, T/C: stronger effect = lower value. The source says:
Multicellular complex tumor spheroid response to LSD1 Inhibitor Iadademstat in combination with a variety of drugs and investigational agents in selected tumor cell lines
The current study was undertaken to assess response to LSD1 inhibitors in combination with standard-of-care drugs and investigational agents in solid tumor complex spheroid models as well as in the K-562 leukemia. Complex spheroids include a stromal component modeled by human endothelial cells (HUVEC) and fibroblasts modeled by human mesenchymal stem cells (MSCs). The concentration ranges selected for each drug and investigational agent were based upon clinically achievable concentrations if the clinical Cmax of the agent was known.
Compounds. The drugs and investigational agents used in this study are listed on Table 1. All of the agents used, including staurosporine (NSC755774) and gemcitabine (NSC613327), were obtained from the Developmental Therapeutics Program, NCI. FDA-approved anticancer drugs are available from the NCI at http://dtp.nci.nih.gov/branches/dscb/oncology_drugset_explanation.html. Drugs and investigational agents were >95% pure by proton nuclear magnetic resonance (NMR) and liquid chromatography/mass spectrometry (LC/MS). Stock solutions were prepared at 400x in DMSO, stored at -70 degrees C, and diluted in fresh medium prior to their use. The final concentration of DMSO in cell culture wells never exceeded 0.25% (v/v). The FDA-approved anticancer drug set is available from the Developmental Therapeutics Program at https://dtp.cancer.gov/organization/dscb/obtaining/available_plates.htm. All drugs and investigational agents were tested over a range starting from a high concentration at or near the clinical Cmax and decreasing in half-log increments. If the clinical Cmax for an agent had not been determined, the highest concentration tested was 10 microM.
Cell Lines. The patient-derived cancer cell (PDC) lines: 292921-168-R-J2-PDC, K24384-001-R-PDC, and 521955-158-R2-J5-PDC pancreatic carcinomas, 556581-035-R-J1 ovarian carcinoma, 324938-238-R-J1-PDC, 855422-203-R-J1-PDC and 883617-216-R-J1-PDC urothelial bladder carcinomas, 743489-274-T-PDC renal cell carcinoma, 138582-R-J1 Merkel cell tumor, K60290-347-R-J1 and K57222-313-R-J1-PDC glioblastomas, 653999-131-R-J2-PDC, LG0703-F948-PDC, and 349418-098-R-PDC non-small cell lung carcinomas, 885512-296-R-J2-PDC, 171881-019-R-J1-PDC breast carcinomas and 186277-243-T-J2-PDC and 233499-124-R-J2-PDC colon carcinomas were obtained from the NCI Patient-Derived Models Repository (PDMR, https://pdmr.cancer.gov). The established cell lines NCI/ADR-RES (RRID:CVCL_14520 and OVCAR-5 (RRID:CVCL_1628) ovarian carcinomas, 786-O (RRID:CVCL_1051) and A498 (RRID:CVCL_A498) renal cell carcinoma, NCI-H211 (ATCC, cat. CRL-5824; RRID:CVCL_1529), NCI-H196 (ATCC, cat. CRL-5823, RRID:CVCL_1509), SW 1271 (ATCC, cat. CRL-2177, RRID:CVCL_1716) and NCI-H1876 (ATCC, cat. CRL-5902, RRID:CVCL_1503) small cell lung carcinomas, MDA-MB-231 (RRID:CVCL_0062) and MDA-MB-468 (RRID:CVCL_0419)breast carcinomas (10-12). Pooled donor human umbilical vein endothelial cells (HUVEC, Lonza, cat. CC-2519) and human mesenchymal stem cells (hMSC, Lonza, cat. PT-2501) were purchased from Lonza (Walkersville, MD).
Cell Culture. All cells were maintained in an incubator at 37 degrees C and 5% CO2 with 95% humidity. The PDC lines were cultured according to standard operating procedures established by the NCI PDMR (https://pdmr.cancer.gov). Briefly all PDCs were thawed and cultured in Matrigel-coated flasks prepared with a working solution of 1X Ham's F-12 nutrient mix, without supplementation (Invitrogen, Waltham, MA, cat. 11765054), 100 U/mL penicillin-streptomycin (Invitrogen, cat. 15140122), and 2.5% Matrigel (Corning Inc., Corning, NY, cat. 354248) for the first three passages. […]

Molecules are shown by their SMILES. “And” between values parts separate entries of the source, which are not always exact repeats. Identical values can stand only once.

By viability, T/C is commonly meant the ratio of treated to control. By IC50 is commonly meant the concentration needed to halve the response being measured. For `CC(C)c1c(-c2ccccc2)nc2c(C#N)c[nH]n2c1=O`, the viability, T/C was 93.8% and 104% (compound 0.0316 µM); 94.6% and 101% (compound 0.1 µM); 92.2% and 103% (compound 0.316 µM); 92% and 102% (compound 1 µM); 89.2% and 94.4% (compound 3.16 µM); 27.8% and 33.1% (compound 10 µM). In addition, the IC50 (curve of compound) is 6.59 µM and 7.28 µM.
For the molecule `CC1COCCN1c1cc(C2(S(C)(=N)=O)CC2)nc(-c2ccnc3[nH]ccc23)n1` (stereo not drawn), the viability, T/C was 103% and 104% (compound 0.0316 µM); 109% and 102% (compound 0.1 µM); 102% and 103% (compound 0.316 µM); 102% and 105% (compound 1 µM); 80.3% and 74.2% (compound 3.16 µM); 28.5% and 23.1% (compound 10 µM). Also, the IC50 (curve of compound) is 6.2 µM and 5.45 µM.
As for `COc1ccc([C@@H](O)c2cc(-c3ncnc4cc(N5CCOCC5)ccc34)c(F)cc2Cl)nn1`, the viability, T/C (compound 0.0316 µM) is 93.6% and 98%; the viability, T/C (compound 0.1 µM) was 101% and 97.7%; the viability, T/C (compound 0.316 µM) is 91.2% and 85.7%; the viability, T/C (compound 1 µM) is 84.5% and 68.1%; the viability, T/C (compound 3.16 µM) was 59.4% and 41.1%; the viability, T/C (compound 10 µM) is 25.1% and 10.8%. In addition, the IC50 (curve of compound) is 4.34 µM and 2.15 µM.
With `NC1CC1c1ccc(-c2cccc(O)c2)cc1` (stereo not drawn), the viability, T/C (compound 0.1 µM) was 94%. Moreover, the 50% inhibitory concentration (IC50) (compound alone, run of 02/21/2022) is above 10 µM.
With `NC1CCC(NC2CC2c2ccccc2)CC1` (stereo not drawn), the viability, T/C (compound 0.316 µM) was 98.5% and 109%; the viability, T/C (compound 1 µM) is 102% [middle of 25 runs]; the viability, T/C (compound 3.16 µM) is 102% [middle of 25 runs]; the viability, T/C (compound 10 µM) is 103% [middle of 23 runs]. Besides, for the setting “compound alone, run of 02/15/2022”, the IC50 was above 10 µM.
Consider `Nc1ncn(C2CC(O)C(CO)O2)c(=O)n1` (stereo not drawn) + NC1CC1c1ccc(-c2cccc(O)c2)cc1, for which the IC50 (curve of first compound, second compound 0.1 µM) is above 1 µM; the concentration for half-maximal inhibition (IC50) (curve of first compound, second compound 0.316 µM) was above 1 µM; the concentration for half-maximal inhibition (IC50) (curve of first compound, second compound 1 µM) is above 1 µM; the IC50 (curve of first compound, second compound 3.16 µM) was above 1 µM; the half-maximal inhibitory concentration (IC50) (curve of first compound, second compound 10 µM) was above 1 µM. Moreover, the viability, T/C by setting is: (second compound 0.1 µM, first compound 0.00316 µM) 109%; (second compound 0.1 µM, first compound 0.01 µM) 103%; (second compound 0.1 µM, first compound 0.0316 µM) 105%; (second compound 0.1 µM, first compound 0.1 µM) 98.6%; (second compound 0.1 µM, first compound 0.316 µM) 91%; (second compound 0.1 µM, first compound 1 µM) 101%. The viability, T/C is 113% (second compound 0.316 µM, first compound 0.00316 µM); 110% (second compound 0.316 µM, first compound 0.01 µM); 105% (second compound 0.316 µM, first compound 0.0316 µM); 99% (second compound 0.316 µM, first compound 0.1 µM); 96% (second compound 0.316 µM, first compound 0.316 µM); 94.3% (second compound 0.316 µM, first compound 1 µM). In addition, the viability, T/C was 106% (second compound 1 µM, first compound 0.00316 µM); 114% (second compound 1 µM, first compound 0.01 µM); 106% (second compound 1 µM, first compound 0.0316 µM); 102% (second compound 1 µM, first compound 0.1 µM); 104% (second compound 1 µM, first compound 0.316 µM); 101% (second compound 1 µM, first compound 1 µM). For the same molecule, the viability, T/C by setting is: (second compound 3.16 µM, first compound 0.00316 µM) 106%; (second compound 3.16 µM, first compound 0.01 µM) 113%; (second compound 3.16 µM, first compound 0.0316 µM) 107%; (second compound 3.16 µM, first compound 0.1 µM) 99.1%; (second compound 3.16 µM, first compound 0.316 µM) 94.3%; (second compound 3.16 µM, first compound 1 µM) 89.8%. Further, the viability, T/C runs as follows: (second compound 10 µM, first compound 0.00316 µM) 109%; (second compound 10 µM, first compound 0.01 µM) 107%; (second compound 10 µM, first compound 0.0316 µM) 103%; (second compound 10 µM, first compound 0.1 µM) 108%; (second compound 10 µM, first compound 0.316 µM) 93.4%; (second compound 10 µM, first compound 1 µM) 92.1%.
